Test results from PubChem BioAssay (NCI).
Where “and” joins values, the source holds several entries; their conditions need not be identical. Equal entries are not always repeated.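 Results reflect a 48-hour exposure of cells in 96-well plates to compound at five concentrations. GI50 = concentration required for 50% inhibition of growth. TGI marks complete inhibition of growth.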

Tests used:
Experiment in all cases: growth of human tumour cells (NCI), 48 h
OVCAR-5 ovarian = test system: OVCAR-5 ovarian
RPMI-8226 leukemia = test system: RPMI-8226 leukemia
MALME-3M melanoma = test system: MALME-3M melanoma
SNB-75 CNS = test system: SNB-75 CNS
DU-145 prostate = test system: DU-145 prostate
UACC-257 melanoma = test system: UACC-257 melanoma
SK-MEL-5 melanoma = test system: SK-MEL-5 melanoma
U251 CNS = test system: U251 CNS
NCI-H23 lung = test system: NCI-H23 lung
T-47D breast = test system: T-47D breast

| Compound | GI50 (OVCAR-5 ovarian) | TGI (OVCAR-5 ovarian) [µM] | GI50 (RPMI-8226 leukemia) | TGI (RPMI-8226 leukemia) [µM] | GI50 (MALME-3M melanoma) [µM] | TGI (MALME-3M melanoma) [µM] | GI50 (SNB-75 CNS) | TGI (SNB-75 CNS) [µM] | GI50 (DU-145 prostate) | TGI (DU-145 prostate) | GI50 (UACC-257 melanoma) | TGI (UACC-257 melanoma) [µM] | GI50 (SK-MEL-5 melanoma) | TGI (SK-MEL-5 melanoma) | GI50 (U251 CNS) | TGI (U251 CNS) [µM] | GI50 (NCI-H23 lung) | TGI (NCI-H23 lung) | GI50 (T-47D breast) | TGI (T-47D breast) [µM] |
| --- | --- | --- | --- | --- | --- | --- | --- | --- | --- | --- | --- | --- | --- | --- | --- | --- | --- | --- | --- | --- |
| CCC1OC(/C(C)=C/C(C)/C=C/C2C(C)C2/C=C/C2OC(CC(=O)O)CC(O)C2O)CC=C1C (configuration not stated) | > 50 µM | > 50 | > 50 µM | > 50 | 1.99 | > 50 | > 50 µM | > 50 | > 50 µM | > 50 µM | > 50 µM | > 50 | > 50 µM | > 50 µM | > 50 µM | > 50 | > 50 µM | > 50 µM | > 50 µM | > 50 |
| O=c1oc2cc(OS(=O)(=O)c3ccccc3)ccc2c2c1CCCCC2 | > 100 µM | > 100 | 3.58 µM | > 100 | 29.4 | > 100 | 16.9 µM | > 100 | > 100 µM | > 100 µM | 7.31 µM | > 100 | 2.88 µM | > 100 µM | 4.51 µM | > 100 | 7.27 µM | > 100 µM | 3.79 µM | > 100 |
| N#Cc1ccc2c(c1)C(=O)c1c-2n(CCCN=[N+]=[N-])c(=O)c2cc([N+](=O)[O-])ccc12 | > 50 µM | > 50 | 21.3 µM | > 50 | > 50 | > 50 | 17.4 µM | > 50 | 7.16 µM | > 50 µM | > 50 µM | > 50 | > 50 µM | > 50 µM | 4.49 µM | > 50 | 49.5 µM | > 50 µM | 8.63 µM | > 50 |
| Cc1nn2c(/C=C3\C(=O)Nc4ccccc43)c(C)nc2s1 | 50.7 µM | > 100 | 49 µM | > 100 | > 100 | > 100 | 53.7 µM | > 100 | 75.8 µM | > 100 µM | > 100 µM | > 100 | 16.5 µM | > 100 µM | 71.9 µM | > 100 | 35.4 µM | > 100 µM | 32 µM | > 100 |
| O=S1(=O)CC(Br)C(Br)C1 (configuration not stated) | 15.8 µM | 54.9 | 12.3 µM | 41.2 | 3.91 | 13.1 | 5.25 µM | 19.1 | 4.21 µM | 15.9 µM | 4.94 µM | 51.2 | 2.3 µM | 10.3 µM | 7.28 µM | 23.6 | 7.88 µM | 26 µM | 3.16 µM | 13.6 |
| CS(=O)(=O)Nc1cc(-c2ccc3ncnc(Nc4cccc(Cl)c4F)c3c2)cnc1Cl | 2.17 µM | 19.1 | 2.21 µM | 6.11 | 1.83 | 7.66 | 0.463 µM | 7.43 | 3.69 µM | 29 µM | 2.62 µM | 18 | 1.66 µM | 3.29 µM | 2.45 µM | 14.9 | 2.33 µM | 10.1 µM | 0.382 µM | 10.6 |
| COc1cc(CC2CC(c3ccc4c(c3)OCO4)OC2=O)cc(OC)c1OC (configuration not stated) | – | > 100 | – | > 100 | – | > 100 | – | > 100 | – | > 100 µM | – | > 100 | – | > 100 µM | – | > 100 | – | > 100 µM | – | > 100 |
| CN(C)CCNc1c2c(c(NCCN(C)C)c3c(CO)c[nH]c13)C(=O)c1ccccc1C2=O | 12.7 µM | 33.5 | 2.17 µM | 12.8 | 2.4 | 6.83 | 6.38 µM | 22.6 | 2.17 µM | 12.7 µM | 9.85 µM | > 76.2 | 1.81 µM | 4.67 µM | 3.07 µM | 22.5 | 2.31 µM | > 21.9 µM | 22.1 µM | 48.2 |
| C[C@H]1CCC/C=C/[C@@H]2C[C@H](O)C[C@H]2[C@H](O)[C@@H](SC2OC(CO)C(O)C(O)C2O)CC(=O)O1 (some centres not stated) | 48 µM | > 100 | > 100 µM | > 100 | 27.6 | 69.4 | 53.2 µM | > 100 | > 100 µM | > 100 µM | 44.5 µM | > 100 | 16.2 µM | 30 µM | > 100 µM | > 100 | 47.9 µM | > 100 µM | > 100 µM | > 100 |
| S=c1[nH]nc(SCc2ccccc2Cl)c2[nH]cnc12 | – | > 100 | – | > 100 | – | > 100 | – | > 100 | – | > 100 µM | – | > 100 | – | > 100 µM | – | > 100 | – | > 100 µM | – | > 100 |
| Cc1c(N)nc(C(CC(N)=O)NCC(N)C(N)=O)nc1C(=O)NC(C(=O)NC(C)C(O)C(C)C(=O)NC(C(=O)NCCc1nc(-c2nc(C(=O)NCCCNCCCCN)cs2)cs1)C(C)O)C(OC1OC(CO)C(O)C(O)C1OC1OC(CO)C(O)C(OC(N)=O)C1O)c1cnc[nH]1 (configuration not stated) | 45.6 µg/mL | > 10 | 13.3 µg/mL | > 10 | – | > 10 | 8.83 µg/mL and 3.08 µg/mL | – | 2.17 µg/mL and 11.3 µg/mL | 48 µg/mL | 86.1 µg/mL | > 10 | 1.05 µg/mL and 0.164 µg/mL | 15.9 µg/mL and > 10 µM | 8.06 µg/mL | > 10 | 0.251 µg/mL | 11.1 µg/mL and > 10 µM | 16.5 µg/mL | – |
| CN1N=Nc2c(C(F)(F)F)nn(-c3ccccc3)c2N(C)C1=O | > 100 µM | > 100 | > 56 µM | > 100 | > 100 | > 100 | > 100 µM | > 100 | > 100 µM | > 100 µM | > 100 µM | > 100 | > 100 µM | > 100 µM | > 100 µM | > 100 | > 100 µM | > 100 µM | > 100 µM | > 100 |
| c1ccc(-c2cnc3nc4ccccc4nc3n2)cc1 | – | 83.1 | – | 23.9 | – | 15.8 | – | 22.8 | – | 19.6 µM | – | 8.62 | – | 12.3 µM | – | 22.4 | – | 22 µM | – | 47 |
